From ChEMBL document CHEMBL5244230, “Artemisinin-derived hybrids and their anticancer activity” (Eur J Med Chem, 2020)
pIC50: −log10 of the molar value.

How the values were obtained:
[1] = Cytotoxicity against human U87 cells assessed as cell growth inhibition measured after 48 hrs by MTT assay; type: functional, U-87MG ATCC; details: U-87 MG
A 172 = test: Cytotoxicity against human A-172 cells assessed as cell growth inhibition measured after 48 hrs by MTT assay; type: functional
HeLa [2] = test: Cytotoxicity against human HeLa cells assessed as cell growth inhibition measured after 48 hrs by MTT assay; type: functional
DLD-1 = test: Cytotoxicity against human DLD-1 cells assessed as cell growth inhibition measured after 48 hrs by MTT assay; type: functional
SiHa = test: Cytotoxicity against human SiHa cells assessed as cell growth inhibition measured after 48 hrs by MTT assay; type: functional
B16 = test: Cytotoxicity against mouse B16 cells assessed as cell growth inhibition measured after 48 hrs by MTT assay; type: functional
NCI-H460 = test: Antiproliferative activity against human NCI-H460 cells assessed as reduction in cell viability measured for 72 hrs by MTT assay; type: functional, cell-based; details: NCI-H460, 72 h
HT-29 = test: Antiproliferative activity against human HT-29 cells assessed as reduction in cell viability measured for 72 hrs by MTT assay; type: functional, cell-based; details: HT-29, 72 h
MDA-MB-231 = test: Antiproliferative activity against human MDA-MB-231 cells assessed as reduction in cell viability measured for 72 hrs by MTT assay; type: functional, cell-based; details: MDA-MB-231, 72 h
A549 = test: Antiproliferative activity against human A549 cells assessed as reduction in cell viability measured for 72 hrs by MTT assay; type: functional, cell-based; details: A549, 72 h
HeLa [3] = test: Antiproliferative activity against human HeLa cells assessed as reduction in cell viability measured for 72 hrs by MTT assay; type: functional, cell-based

SMILES	GI50 [1] [nM]	GI50 (A 172) [nM]	GI50 (HeLa [2]) [nM]	GI50 (DLD-1) [nM]	GI50 (SiHa) [nM]	GI50 (B16) [nM]	pIC50 (NCI-H460)	pIC50 (HT-29)	pIC50 (MDA-MB-231)	pIC50 (A549)	pIC50 (HeLa [3])
C[C@@H]1[C@@H](n2cc(-c3cc(F)cc(F)c3)nn2)O[C@@H]2O[C@@]3(C)CC[C@H]4[C@H](C)CC[C@@H]1[C@@]24OO3	30	30	30	30	30	30	–	–	–	–	–
C[C@H]1[C@H](n2nncc2-c2ccc(Cl)cc2)O[C@@H]2O[C@@]3(C)CC[C@H]4[C@H](C)CC[C@@H]1[C@@]24OO3	40	40	40	40	40	40	–	–	–	–	–
C[C@H]1[C@H](n2nncc2-c2ccccc2C(F)(F)F)O[C@@H]2O[C@@]3(C)CC[C@H]4[C@H](C)CC[C@@H]1[C@@]24OO3	40	40	40	40	40	40	–	–	–	–	–
CCCCCc1ccc(-c2cnnn2[C@@H]2O[C@@H]3O[C@@]4(C)CC[C@H]5[C@H](C)CC[C@@H]([C@H]2C)[C@@]35OO4)cc1	40	40	40	40	40	40	–	–	–	–	–
Cc1ccc(-c2cn([C@H]3O[C@@H]4O[C@@]5(C)CC[C@H]6[C@H](C)CC[C@@H]([C@@H]3C)[C@@]46OO5)nn2)cc1	30	30	30	30	30	30	–	–	–	–	–
COc1ccc(-c2cn([C@@H]3O[C@@H]4O[C@@]5(C)CC[C@H]6[C@H](C)CC[C@@H]([C@H]3C)[C@@]46OO5)nn2)cc1	50	50	50	50	50	50	–	–	–	–	–
Cc1ccc(-c2cnnn2[C@@H]2O[C@@H]3O[C@@]4(C)CC[C@H]5[C@H](C)CC[C@@H]([C@H]2C)[C@@]35OO4)cc1	40	40	40	40	40	40	–	–	–	–	–
C[C@@H]1CC[C@H]2[C@@H](C)C(n3cc(-c4cccc(Cl)c4)nn3)O[C@@H]3O[C@@]4(C)CC[C@@H]1[C@]32OO4 (some centres undefined)	50	50	50	50	50	50	–	–	–	–	–
CCCCCc1ccc(-c2cn([C@H]3O[C@@H]4O[C@@]5(C)CC[C@H]6[C@H](C)CC[C@@H]([C@@H]3C)[C@@]46OO5)nn2)cc1	30	30	30	30	30	30	–	–	–	–	–
C[C@H]1[C@@H](NC(=O)COCc2ccc(C(=O)/C=C/c3ccc(F)cc3F)cc2)O[C@@H]2O[C@@]3(C)CC[C@H]4[C@H](C)CC[C@@H]1[C@@]24OO3	–	–	–	–	–	–	7.05	7.05	7.05	7.05	7.05
C[C@H]1[C@H](NC(=O)COCc2ccc(C(=O)/C=C/c3ccccc3F)cc2)O[C@@H]2O[C@@]3(C)CC[C@H]4[C@H](C)CC[C@@H]1[C@@]24OO3	–	–	–	–	–	–	7.00	7.00	7.00	7.00	7.00
COc1ccc(/C=C/C(=O)c2ccc(COCC(=O)N[C@H]3O[C@@H]4O[C@@]5(C)CC[C@H]6[C@H](C)CC[C@@H]([C@H]3C)[C@@]46OO5)cc2)c(OC)c1OC	–	–	–	–	–	–	7.05	7.05	7.05	7.05	7.05
C[C@H]1[C@H](NC(=O)COCc2ccc(C(=O)/C=C/c3ccc(F)c(F)c3)cc2)O[C@@H]2O[C@@]3(C)CC[C@H]4[C@H](C)CC[C@@H]1[C@@]24OO3	–	–	–	–	–	–	7.00	7.00	7.00	7.00	7.00
C[C@H]1[C@@H](NC(=O)COCc2ccc(C(=O)/C=C/c3ccc(Cl)cc3)cc2)O[C@@H]2O[C@@]3(C)CC[C@H]4[C@H](C)CC[C@@H]1[C@@]24OO3	–	–	–	–	–	–	7.05	7.05	7.05	7.05	7.05
C[C@H]1[C@@H](NC(=O)COCc2ccc(/C=C/C(=O)c3cccc(Cl)c3)cc2)O[C@@H]2O[C@@]3(C)CC[C@H]4[C@H](C)CC[C@@H]1[C@@]24OO3	–	–	–	–	–	–	5.77	5.77	5.77	5.77	5.77
COc1ccc(OC)c(/C=C/C(=O)c2ccc(COCC(=O)N[C@@H]3O[C@@H]4O[C@@]5(C)CC[C@H]6[C@H](C)CC[C@@H]([C@H]3C)[C@@]46OO5)cc2)c1	–	–	–	–	–	–	7.00	7.00	7.00	7.00	7.00

SMILES	GI50 [1] [nM]	GI50 (A 172) [nM]	GI50 (HeLa [2]) [nM]	GI50 (DLD-1) [nM]	GI50 (SiHa) [nM]	GI50 (B16) [nM]	pIC50 (NCI-H460)	pIC50 (HT-29)	pIC50 (MDA-MB-231)	pIC50 (A549)	pIC50 (HeLa [3])
C[C@H]1[C@H](NC(=O)COCc2ccc(C(=O)/C=C/c3ccc(Cl)cc3)cc2)O[C@@H]2O[C@@]3(C)CC[C@H]4[C@H](C)CC[C@@H]1[C@@]24OO3	–	–	–	–	–	–	7.00	7.00	7.00	7.00	7.00
C[C@H]1[C@H](NC(=O)COCc2ccc(C(=O)/C=C/c3ccc(S(C)(=O)=O)cc3)cc2)O[C@@H]2O[C@@]3(C)CC[C@H]4[C@H](C)CC[C@@H]1[C@@]24OO3	–	–	–	–	–	–	7.00	7.00	7.00	7.00	7.00
C[C@H]1[C@H](NC(=O)COCc2ccc(C(=O)/C=C/c3cccc(OC(F)(F)F)c3)cc2)O[C@@H]2O[C@@]3(C)CC[C@H]4[C@H](C)CC[C@@H]1[C@@]24OO3	–	–	–	–	–	–	7.00	7.00	7.00	7.00	7.00
C[C@H]1[C@@H](NC(=O)COCc2ccc(C(=O)/C=C/c3cccc(OC(F)(F)F)c3)cc2)O[C@@H]2O[C@@]3(C)CC[C@H]4[C@H](C)CC[C@@H]1[C@@]24OO3	–	–	–	–	–	–	7.05	7.05	7.05	7.05	7.05
C[C@H]1[C@@H](NC(=O)COCc2ccc(/C=C/C(=O)c3ccc(Cl)c(Cl)c3)cc2)O[C@@H]2O[C@@]3(C)CC[C@H]4[C@H](C)CC[C@@H]1[C@@]24OO3	–	–	–	–	–	–	5.77	5.77	5.77	5.77	5.77
C[C@H]1[C@H](NC(=O)COCc2ccc(C(=O)/C=C/c3cccc(Cl)c3Cl)cc2)O[C@@H]2O[C@@]3(C)CC[C@H]4[C@H](C)CC[C@@H]1[C@@]24OO3	–	–	–	–	–	–	7.00	7.00	7.00	7.00	7.00
C[C@H]1[C@@H](NC(=O)COCc2ccc(/C=C/C(=O)c3ccccc3)cc2)O[C@@H]2O[C@@]3(C)CC[C@H]4[C@H](C)CC[C@@H]1[C@@]24OO3	–	–	–	–	–	–	5.77	5.77	5.77	5.77	5.77
C[C@H]1[C@H](NC(=O)COCc2ccc(C(=O)/C=C/c3ccc(OC(F)(F)F)cc3)cc2)O[C@@H]2O[C@@]3(C)CC[C@H]4[C@H](C)CC[C@@H]1[C@@]24OO3	–	–	–	–	–	–	7.00	7.00	7.00	7.00	7.00
C[C@H]1[C@@H](NC(=O)COCc2ccc(C(=O)/C=C/c3ccc(OC(F)(F)F)cc3)cc2)O[C@@H]2O[C@@]3(C)CC[C@H]4[C@H](C)CC[C@@H]1[C@@]24OO3	–	–	–	–	–	–	7.05	7.05	7.05	7.05	7.05
C[C@H]1[C@H](NC(=O)COCc2ccc(C(=O)/C=C/c3ccc(F)cc3F)cc2)O[C@@H]2O[C@@]3(C)CC[C@H]4[C@H](C)CC[C@@H]1[C@@]24OO3	–	–	–	–	–	–	7.00	7.00	7.00	7.00	7.00
COc1ccc(OC)c(/C=C/C(=O)c2ccc(COCC(=O)N[C@H]3O[C@@H]4O[C@@]5(C)CC[C@H]6[C@H](C)CC[C@@H]([C@H]3C)[C@@]46OO5)cc2)c1	–	–	–	–	–	–	7.05	7.05	7.05	7.05	7.05
C[C@H]1[C@H](NC(=O)COCc2ccc(C(=O)/C=C/c3ccc(F)cc3)cc2)O[C@@H]2O[C@@]3(C)CC[C@H]4[C@H](C)CC[C@@H]1[C@@]24OO3	–	–	–	–	–	–	7.00	7.00	7.00	7.00	7.00
C[C@H]1[C@H](NC(=O)COCc2ccc(C(=O)/C=C/c3c(Cl)cccc3Cl)cc2)O[C@@H]2O[C@@]3(C)CC[C@H]4[C@H](C)CC[C@@H]1[C@@]24OO3	–	–	–	–	–	–	7.00	7.00	7.00	7.00	7.00
COc1cccc(/C=C/C(=O)c2ccc(COCC(=O)N[C@H]3O[C@@H]4O[C@@]5(C)CC[C@H]6[C@H](C)CC[C@@H]([C@H]3C)[C@@]46OO5)cc2)c1	–	–	–	–	–	–	7.05	7.05	7.05	7.05	7.05
C[C@H]1[C@@H](NC(=O)COCc2ccc(/C=C/C(=O)c3ccc(F)cc3)cc2)O[C@@H]2O[C@@]3(C)CC[C@H]4[C@H](C)CC[C@@H]1[C@@]24OO3	–	–	–	–	–	–	5.77	5.77	5.77	5.77	5.77
